Marks after values point to notes of the source that are not given here. Ends that are not written are not given here.
Key:
Type in all cases: in vivo, BALB/c mice
[1] = test system: T lymphocyte; test: T lymphocyte transformation in mice with ascitic fluid type liver cancer H22; settings: saline 1.25 ± 0.07
Procedure: Healthy BALB/c mice were randomised into peptide group, rmIFN-γ group, rhIL-2 group, and saline group, 15 mice per group, and prepared into H22 carrying mice model as described in section Method 3. After implantation of the cancer cells, the test substances were administered for 15 days, the mice were killed by cervical dislocation. The spleen was isolated aseptically and manually dispersed in cold D-Hank's solution using an injection needle. The dispersed cell suspension was further sieved through a 100-gauge 150 μm diameter stainless steel sieve. After centrifugation at 200 g for 10 minutes, the supernatant was discarded. The cell pellet was re-suspended in 10 volume of Tris-NH4Cl buffer and then kept standing still for 10 minutes at room temperature. The suspended cells were collected by centrifugation at 150 g for 10 minutes. The cells were washed 2-4 times with cold D-Hank's solution by re-suspending and collecting by centrifugation with condition as described above. The washed cells were then diluted to the desired cell densities by RPMI-1640 culture medium, containing 10% fetal bovine serum.
(§1) Spleen cells of density 1×10^6/ml were placed onto a 96 wells cell culture plate, 100 μl/well, three parallel wells each of the assay sample and control sample per mouse. To the assay wells, 100 μl/well ConA of 100 μg/ml in RPMI-1640 was added, and 100 μl/well plain RPMI-1640 was used for the controls. The cells were incubated for 66 hrs at 37° C., 5% CO2. The cells were then pelleted by centrifugation at 150 g for 10 minutes.
50 μl/well MTT of 1 mg/ml in RPMI-1640 was added to the cell pellet and the cells re-suspended by shaking for 2 minutes. The incubation was continued for 4 hours. The supernatant was discarded after centrifugation at 150 g for 10 minutes. 120 μl 40 mM HCl-2-propanol was added to the cell pellet and shaken for 3 minutes. Use an ELISA reader to obtain OD570 nm of each well referenced at 630 nm.
Each mouse formed three assay wells and three control wells. The Stimulation Index (SI) of each mouse was obtained by first deriving the average OD of the three parallel wells, then dividing the value of the assay wells by the control wells.

[2] = test system: IL-2; test: T lymphocyte IL-2 secretion test (HT-2 cell bioassay of ConA supernatant); settings: for activity of T lymphocyte in secreting IL-2, X ± SD (IU): healthy mice; for effect on the secretion of interleukin-2 (IL-2) by T lymphocytes (summary): statistically significant difference from saline in any of the dosage groups 0.5-500 μg/kg/day
Procedure: as §1, with “100 μL/well,” for “100 μl/well,”, “and […]” for “and 100”
HT-2 cells at log phase were collected by centrifugation at 150 g for 10 minutes, and washed three times with cold Hank's solution by re-suspension and centrifugation. The collected HT-2 cells were re-suspended in RPMI-1640 and incubated at 37° C., 5% CO2 for 30 minutes. The cells were further washed twice with RPMI-1640 by re-suspension and centrifugation, and re-suspended to final concentration of 2×10^5/ml with RPMI-1640.
rIL-2 was diluted to the following concentration with RPMI-1640: 500 IU/ml, 250 IU/ml, 125 IU/ml, 62.5 IU/ml, 31.25 IU/ml, and […].
The plate was incubated at 37° C., 5% CO2 for 68 hours, then centrifuged at 150 g for 15 minutes and the supernatant removed. 100 μl 0.5 mg/ml MTT in RPMI-1640 without phenolsulfonphthalein was added into each well. After shaking for 3-4 minutes to re-suspend the cells, continue to incubate for another 4 hours. Samples were then centrifuged at 150 g for 15 minutes and the supernatant was removed. To each well, 120 μl 40 mM HCl-2-propanol was added, mixed for 3-4 minutes and OD analyzed at 570 nm, referenced at 630 nm with an ELISA plate reader.
The average OD of the three parallel wells of each dilution was taken and plotted against concentration on a semi-log paper, concentration on the X-axis. The concentration at 50% OD saturation was obtained for both the testing supernatant and rIL-2.

[3] = test system: T lymphocyte; test: T lymphocyte transformation test (ConA-stimulated spleen cells of treated mice, MTT); settings: for X ± SD (stimulation index): healthy mice, saline 1.3 ± 0.1; for effect on T lymphocyte transformation (summary): statistically significant difference from saline in any of the dosage groups 0.5-500 μg/kg/day
Method in brief: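 Mice (10/group) received substances i.p. in 0.5 ml saline daily for 15 days; next day splenocytes (1×10^6/ml) were cultured 66 h at 37 °C with or without ConA (100 μg/ml stock added). MTT was added for 4 h and OD570 (ref 630 nm) read; stimulation index = mean ConA OD / mean control OD per mouse.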

[4] = test system: spleen; test: Immunity organ weight test, spleen index; settings: for weight of spleen (spleen index), X ± SD (%): healthy mice, saline 0.53 ± 0.05; for effect on the weight of the spleen (summary): statistically significant difference from saline in any of the dosage groups 0.5-500 μg/kg/day
Procedure: One day after the last test substance administration (day 16), the liver, spleen, and thymus gland were separated and blotted dry with filter paper and weighed. The phagocytosis index α was calculated as below: α=(^3√{square root over ( )}K)(W÷WLS)
Spleen index (%)=(spleen weight/body weight)×100%

[5] = peptide 0.51 g/kg/day (so in the source) i.p. 15 days (IFN-γ, IL-2 3×10^5 IU/kg/day), saline 38 ± 13
[6] = peptide 5 μg/kg/day i.p. 15 days (IFN-γ, IL-2 3×10^5 IU/kg/day)
[7] = peptide 500 μg/kg/day i.p. 15 days
[8] = peptide 500 μg/kg/day i.p. 15 days (IFN-γ, IL-2 3×10^5 IU/kg/day), saline 39 ± 10
[9] = Table 28, peptide 5 μg/kg/day (so in the source) i.p. 15 days (IFN-γ, IL-2 3×10^5 IU/kg/day)
[10] = peptide 0.5 μg/kg/day i.p. 15 days (IFN-γ, IL-2 3×10^5 IU/kg/day)
[11] = peptide 500 μg/kg/day i.p. 15 days (IFN-γ, IL-2 3×10^5 IU/kg/day)

Row | Molecule | Stimulation index ([1]; dose 0.5 μg/kg) | Stimulation index ([1]; dose 5 μg/kg) | activity of T lymphocyte in secreting IL-2, X ± SD (IU) [2, 5] | effect on the secretion of interleukin-2 (IL-2) by T lymphocytes (summary) [2] | X ± SD (stimulation index) [3, 6] | effect on T lymphocyte transformation (summary) [3] | weight of spleen (spleen index), X ± SD (%) [4, 7] | effect on the weight of the spleen (summary) [4] | activity of T lymphocyte in secreting IL-2, X ± SD (IU) [2, 8] | weight of spleen (spleen index), X ± SD (%) [4, 9] | X ± SD (stimulation index) [3, 10] | X ± SD (stimulation index) [3, 11] | also measured
1 | Phe Val Asn Asp (FVND; listed as Sus scrofa) [CMS035] | 1.40 ± 0.13*^$ | 1.46 ± 0.16*^$ | – | – | – | – | – | – | – | – | – | – | –
2 | Pro Gln Asn Phe (PQNF; printed: Pro Gln Asn Phe) [CMS034] | 1.37 ± 0.10*^$ | – | 85 ± 10*^ IU | enhance | 1.5 ± 0.2 | enhance | – | – | – | – | – | – | –
3 | Tyr Ser Leu (YSL; listed as Sus scrofa) [CMS024] | 1.46 ± 0.19*^$ | 1.45 ± 0.21*^$ | – | – | – | – | 0.34 ± 0.05 % | decrease | – | – | – | – | –
4 | VAPEEHPTLLTEAPLNPK [CMS010] | – | – | 66 ± 11 IU | enhance | – | enhance | – | decrease | 125 ± 17*^@^ IU | 0.38 ± 0.05 % | 1.7 ± 0.3 | 2.0 ± 0.3*^@^ | Stimulation index ([1]; dose 500 μg/kg): 1.45 ± 0.21*^$
5 | VGMGQKDSY | 1.50 ± 0.19*^$ | – | – | – | – | enhance | 0.63 ± 0.08 % | increase | – | – | – | 1.8 ± 0.3 | –
6 | IFN-γ: recombinant mouse IFN-γ (rmIFN-γ), Beijing Biotech Inc.; positive control (protein, UniProt P01580 23-155, looked up) Interferon gamma: HGTVIESLESLNNYFNSSGIDVEEKSLFLDIWRNWQKDGDMKILQSQIISFYLRLFEVLKDNQAISNNISVIESHLITTFFSNSKAKKDAFMSIAKFEVNNPQVQRQAFNELIRVVHQLLPESSLRKRKRSRC | – | – | 87 ± 15 IU | – | 1.6 ± 0.2 | – | – | – | 100 ± 18 IU | 0.50 ± 0.04% | 1.6 ± 0.2 | 1.6 ± 0.2 | activity of T lymphocyte in secreting IL-2, X ± SD (IU) ([2]; peptide 5 μg/kg/day i.p. 15 days (IFN-γ, IL-2 3×10^5 IU/kg/day), saline 37 ± 9): 96 ± 14 IU; activity of T lymphocyte in secreting IL-2, X ± SD (IU) ([2]; peptide 50 μg/kg/day i.p. 15 days (IFN-γ, IL-2 3×10^5 IU/kg/day), saline 39 ± 10): 99 ± 16 IU; weight of spleen (spleen index), X ± SD (%) [4, 10]: 0.50 ± 0.04%; Stimulation index ([1]; controls: rhIL-2, rmIFN-γ 3 × 10^5 IU/kg, cyclophosphamide 20 mg/kg): 1.27 ± 0.14; X ± SD (stimulation index) ([3]; peptide 50 μg/kg/day i.p. 15 days (IFN-γ, IL-2 3×10^5 IU/kg/day)): 1.7 ± 0.2

Source: patent US20060167229A1, “Biologically active peptide conjugates” (priority 2002, published 2006)
